Reference: patent publication US20240076299A1, “TUBERCULATIN ANALOGS AS ANTIVIRAL AGENTS” (priority 2020, published 2024)
Read-outs that look alike come from different tables or passages of the source.

Columns and labels:
HIV = assay: microbe, parasite or virus in culture; type: cell-based, HIV-1
SARS-CoV-2 [1] = assay: microbe, parasite or virus in culture; details: for inhibition at 2 µM: Severe acute respiratory syndrome coronavirus 2, 48 h
[2] = Cytotoxicity evaluation using the SRB assay; details: human, triplicate
AIV = assay: microbe, parasite or virus in culture; type: cell-based, avian influenza virus (H5N1); details: Influenza A virus, read-out: EC50 (nM) AIV
VSV = assay: microbe, parasite or virus in culture; type: cell-based; details: Vesicular stomatitis virus, read-out: EC50 (nM) VSV
SARS-CoV-2 [3] = test system: SARS-CoV-2
in vitro = details: human
[4] = read-out: EC50 (2000 nM) SARS-COV-2, % inhibitory effect at 2000 nM against SARS-CoV-2, triplicate
[5] = A549 cells, CC50 (nM), Table 1, inhibition of cell growth of host A549 cells by 50%
[6] = A549 cells, CC50 (nM) A549, Table 2, host A549 cells
[7] = CC50 (nM) A549, Table 2, host A549 cells
[8] = CC50 (nM), Table 1, inhibition of cell growth of host A549 cells by 50%
[9] = read-out: EC50 (2000 nM) SARS-COV-2

Structure (SMILES) | EC50 (HIV; Human immunodeficiency virus 1) [nM] | inhibition at 2 µM (SARS-CoV-2 [1]; [4]) [%] | CC50 at 2 days [2, 5] [nM] | EC50 (AIV) [nM] | EC50 (VSV) [nM] | CC50 at 2 days [2, 8] [nM] | other results
COc1cc2c(O[C@@H]3OC[C@@]4(CO)OC(c5ccccc5)O[C@@H]34)c3c(c(-c4ccc5c(c4)OCO5)c2cc1OC)C(=O)OC3 (some centres unmarked) [Compound 17] | 251 | 66.2 | 2240 | – | – | – | –
COc1cc2c(O[C@H]3OC[C@@]4(CN=[N+]=[N-])OC(C)(C)O[C@@H]34)c3c(c(-c4ccc5c(c4)OCO5)c2cc1OC)C(=O)OC3 [Compound 25] | 441 | > 80 | 1650 | 0.72 | 4.52 | – | activity against SARS-CoV-2 (conclusion) (SARS-CoV-2 [3]): active molecules; CC50 at 2 days [2, 6]: 648 nM
COc1cc2c(O[C@H]3OC[C@@]4(COC(=O)c5cccnc5)OC(C)(C)O[C@@H]34)c3c(c(-c4ccc5c(c4)OCO5)c2cc1OC)C(=O)OC3 [Compound 29] | 91.8 | 95.6 | 381 | 8.66 | 19.9 | – | CC50 at 2 days [2, 6]: 483 nM
COc1cc2c(OC3OCC(O)(COC4OCC(O)C(O)C4O)C3OC3OCC(O)C(OC4OCC(O)(CO)C4O)C3O)c3c(c(-c4cc5c(cc4O)OCO5)c2cc1OC)C(=O)OC3 (single isomer, unassigned) [Compound 53] | 14700 | – | – | – | – | – | antiviral activity of R atropisomer versus corresponding S atropisomer (HIV): much more potent antiviral activities; CC50 at 2 days (in vitro; CC50 (nM)): > 25000 nM
COc1cc2c(O[C@H]3OC[C@@]4(COC(C)=O)OC(c5ccccc5)O[C@@H]34)c3c(c(-c4ccc5c(c4)OCO5)c2cc1OC)C(=O)OC3 (some centres unmarked) [Compound 21] | 126 | 96.3 | – | 6.25 | 12 | 328 | CC50 at 2 days [2, 7]: 93 nM
COc1cc2c(OC3OCC(O)(COC4OCC(O)C(O)C4O)C3OC3OCC(O)C(O)C3O)c3c(c(-c4cc5c(cc4O)OCO5)c2cc1OC)C(=O)OC3 (single isomer, unassigned) [Compound 51] | 15700 | – | – | – | – | > 25000 | antiviral activity of R atropisomer versus corresponding S atropisomer (HIV): much more potent antiviral activities
COc1cc2c(O[C@@H]3OC[C@@]4(CO)OC(C)(C)O[C@@H]34)c3c(c(-c4ccc5c(c4)OCO5)c2cc1OC)C(=O)OC3 [Compound 9] | 34.6 | > 80 | – | – | – | 1180 | activity against SARS-CoV-2 (conclusion) (SARS-CoV-2 [3]): active molecules
COc1cc2c(O[C@H]3OC[C@](O)(CO)[C@H]3O)c3c(c(-c4ccc5c(c4)OCO5)c2cc1OC)C(=O)OC3 [Compound 19] | 11.9 | 98.3 | – | 70 | 144 | 368 | CC50 at 2 days [2, 7]: 2100 nM
COc1cc2c(O[C@H]3OC[C@@]4(CN)OC(C)(C)O[C@@H]34)c3c(c(-c4ccc5c(c4)OCO5)c2cc1OC)C(=O)OC3 [Compound 26] | 917 | > 80 | – | 0.79 | 0.58 | 4550 | activity against SARS-CoV-2 (conclusion) (SARS-CoV-2 [3]): active molecules; CC50 at 2 days [2, 7]: 2.66 nM
COc1cc2c(O[C@H]3OC[C@](O)(COC(C)=O)[C@H]3O)c3c(c(-c4ccc5c(c4)OCO5)c2cc1OC)C(=O)OC3 [Compound 23] | 43.4 | 96.7 | – | 0.3 | 1.24 | 736 | CC50 at 2 days [2, 7]: 158 nM
COc1cc2c(OC3OC[C@@]4(CO[Si](c5ccccc5)(c5ccccc5)C(C)(C)C)OC(c5ccccc5)O[C@@H]34)c3c(c(-c4cc5c(cc4OCc4ccccc4)OCO5)c2cc1OC)C(=O)OC3 (some centres unmarked) [Compound 42] | > 25000 | – | > 25000 | – | – | – | –
COc1cc2c(O[C@H]3OC[C@@]4(CO)OC(c5ccccc5)O[C@@H]34)c3c(c(-c4cc5c(cc4OCc4ccccc4)OCO5)c2cc1OC)C(=O)OC3 (some centres unmarked) [Compound 44] | > 25000 | – | > 25000 | – | – | – | –
COc1cc2c(O[C@@H]3OC[C@@]4(CO)OC(c5ccccc5)O[C@@H]34)c3c(c(-c4cc5c(cc4OCc4ccccc4)OCO5)c2cc1OC)C(=O)OC3 (some centres unmarked) [Compound 43] | > 25000 | – | > 25000 | – | – | – | –
COc1cc2c(O[C@H]3OC[C@@]4(CO)OC(C)(C)O[C@@H]34)c3c(c(-c4ccc5c(c4)OCO5)c2cc1OC)C(=O)OC3 [Compound 10] | 0.97 | 95.6 | – | 0.75 | 1.5 | 188 | CC50 at 2 days [2, 7]: 400 nM
COc1cc2c(O[C@H]3OC[C@@]4(CO)OC(c5ccccc5)O[C@@H]34)c3c(c(-c4ccc5c(c4)OCO5)c2cc1OC)C(=O)OC3 (some centres unmarked) [Compound 18] | 7.37 | 98.3 | 184 | 0.71 | 2.43 | – | CC50 at 2 days [2, 6]: 208 nM
COc1cc2c(O[C@H]3OC[C@@]4(CN5CCOCC5)OC(C)(C)O[C@@H]34)c3c(c(-c4ccc5c(c4)OCO5)c2cc1OC)C(=O)OC3 [Compound 30] | 18 | – | – | – | – | – | CC50 at 2 days (in vitro; CC50 (nM)): 1190 nM; inhibition at 2 µM (SARS-CoV-2 [1]; [9]): 92.7%
COc1cc2c(OC3OC[C@@]4(CO[Si](c5ccccc5)(c5ccccc5)C(C)(C)C)OC(c5ccccc5)O[C@@H]34)c3c(c(-c4ccc5c(c4)OCO5)c2cc1OC)C(=O)OC3 (some centres unmarked) [Compound 16] | 6580 | 32.4 | > 20000 | – | – | – | –
COc1cc2c(O[C@H]3OC[C@@]4(COC(=O)c5ccncc5)OC(C)(C)O[C@@H]34)c3c(c(-c4ccc5c(c4)OCO5)c2cc1OC)C(=O)OC3 [Compound 28] | 486 | – | – | 16.7 | 56.1 | – | CC50 at 2 days (in vitro; CC50 (nM)): 2210 nM; CC50 at 2 days (in vitro; CC50 (nM) A549): 560 nM; inhibition at 2 µM (SARS-CoV-2 [1]; [9]): 93%
Cc1ccnc2c1NC(=O)c1cccnc1N2C1CC1 [Nevirapine, reference compound] | 35.8 | – | – | – | – | > 200 | –
COc1cc2c(O[C@@H]3OC[C@@]4(COC(C)=O)OC(C)(C)O[C@@H]34)c3c(c(-c4ccc5c(c4)OCO5)c2cc1OC)C(=O)OC3 [Compound 11] | 208 | > 80 | – | – | – | 1260 | activity against SARS-CoV-2 (conclusion) (SARS-CoV-2 [3]): active molecules
COc1cc2c(O)c3c(c(-c4ccc5c(c4)OCO5)c2cc1OC)C(=O)OC3 [Diphyllin (7), diphyllin, reference compound] | 170 | – | – | 2.36 | 11.2 | – | CC50 at 2 days (in vitro; CC50 (nM)): 2460 nM; CC50 at 2 days (in vitro; CC50 (nM) A549): 1980 nM; inhibition at 2 µM (SARS-CoV-2 [1]; [9]): 94.6%
COc1cc2c(O[C@H]3OC[C@@]4(CN(C)C)OC(C)(C)O[C@@H]34)c3c(c(-c4ccc5c(c4)OCO5)c2cc1OC)C(=O)OC3 [Compound 31] | 177 | 91.9 | – | – | – | 1400 | –
CCOC(=O)c1c(CSc2ccccc2)n(C)c2cc(Br)c(O)c(CN(C)C)c12 [arbidol, reference compound] | – | – | – | – | – | – | IC50 (SARS-CoV-2 [1]; Severe acute respiratory syndrome coronavirus 2, HepG2, read-out: IC50 against SARS-CoV-2 pseudovirion): 5230 nM
COc1cc2c(OC3OCC(O)(CO)C3OC3OCC(O)C(O)C3O)c3c(c(-c4cc5c(cc4O)OCO5)c2cc1OC)C(=O)OC3 (single isomer, unassigned) [Compound 49] | – | – | – | – | – | – | EC50 (HIV): 5450 nM; antiviral activity of R atropisomer versus corresponding S atropisomer (HIV): much more potent antiviral activities; CC50 at 2 days (in vitro; CC50 (nM)): 23500 nM
COc1cc2c(O[C@H]3OC[C@@]4(COC(C)=O)OC(C)(C)O[C@@H]34)c3c(c(-c4ccc5c(c4)OCO5)c2cc1OC)C(=O)OC3 [Compound 12] | 26.9 | 96.3 | – | – | – | 472 | activity against SARS-CoV-2 (conclusion) (SARS-CoV-2 [3]): active molecules
COc1cc2c(OC3OCC(O)(CO)C3O)c3c(c(-c4cc5c(cc4O)OCO5)c2cc1OC)C(=O)OC3 (single isomer, unassigned) [Compound 45] | – | – | – | – | – | – | EC50 (HIV): 2730 nM; antiviral activity of R atropisomer versus corresponding S atropisomer (HIV): much more potent antiviral activities; CC50 at 2 days (in vitro; CC50 (nM)): 46800 nM
